# Test results taken from US12630515B2, “Small molecule prostagladin transport inhibitors” (ALBERT EINSTEIN COLLEGE OF MEDICINE, priority 2019, dated 2026).
# Biological target: T1, rat PGT (Rattus norvegicus, UniProt Q00910)
# T1 construct: expressed in transfected cells
# Test: PGT inhibition: [3H]PGE2 uptake in MDCK cells stably transfected with rat PGT
# Type: cell-based
# Settings: room temperature
# Method: MDCK cells stably transfected with rat PGT ae seeded at 15-20% confluence on 96-well deepwell plates. The day on which the cells are seeded is considered day 1. PGE2 uptake experiments are conducted on day 4. All of the PGE2 uptake experiments are conducted at room temperature. On day 4, cells are washed twice with Waymouth buffer (135 mM NaCl, 13 mM H-Hepes, 13 mM Na-Hepes, 2.5 mM CaCl2, 1.2 mM MgCl2, 0.8 mM MgSO4, 5 mM KCl, and 28 mM D-glucose). Then 200 μL of Waymouth buffer containing [^3H]PGE2 (available from Perkin Elmer) is added to each well. At the designed time, the uptake of [^3H]PGE2 is stopped by aspiration of uptake buffer; followed by immediate washing twice with 500 μL of chilled Waymouth buffer. Cells are then lysed with 100 μL lysis buffer containing 0.25% SDS and 0.05 N NaOH. 1.5 mL of scintillation solution is added to each well, and intracellular [^3H]PGE2 is counted via a Beta Counter.
# For preliminary testing of the compounds, 20 μL of Waymouth buffer containing the compound is added to each well; this was immediately followed by the addition of 180 μL of Waymouth buffer containing [^3H]PGE2. In each well, the total volume of uptake medium is 200 μL. Test compounds are first dissolved in organic solvent, such as EtOH, and then diluted in Waymouth buffer. The percent inhibition of [^3H]PGE2 uptake by compounds is calculated as [(uptakevehicle−uptakeinhibitor)÷(uptakevehicle)]×100.
# To determine IC50 of each compound, Waymouth buffer containing various concentrations of the compound is added to each well; immediately followed by the addition of 180 μL of Waymouth buffer containing [^3H]PGE2. IC50 was calculated by fitting the following equation. y=m1-m1*(m0/(m2+m0)).
row,SMILES,IC50
1,"CCC(CC)(CCC(=O)O)c1csc(Nc2ccc(C)cc2)n1 [Cmp. 2, 4-ethyl-4-[2-(4-methylanilino)thiazol-4-yl]hexanoic acid]",< 100000 nM
2,"CCOC(=O)C(CC)(CCC(=O)O)c1csc(Nc2ccc(Cl)cc2Cl)n1 (racemic) [Cmp. 14a, 4-[2-(2,4-dichloroanilino)thiazol-4-yl]-4-ethoxycarbonyl-hexanoic acid]",< 1000 nM
3,"CCC(CCC(=O)O)(C(=O)OCC(C)C)c1cncc(Nc2ccc(C)cc2)n1 (racemic) [compound 35, 4-(isobutoxycarbonyl)-4-(6-(p-tolylamino)pyrazin-2-yl)hexanoic acid]",< 10000 nM
4,"CCC(CC)(CCC(=O)O)c1nc(Nc2ccc(F)cc2F)sc1C [Cmp. 21, 4-[2-(2,4-difluoroanilino)-5-methyl-thiazol-4-yl]-4-ethyl-hexanoic acid]",< 1000 nM
5,"CCOC(=O)C(CC)(CCC(=O)O)c1nc(Nc2ccc(Cl)cc2Cl)sc1C (racemic) [Cmp. 23, 4-[2-(2,4-dichloroanilino)-5-methyl-thiazol-4-yl]-4-ethoxycarbonyl-hexanoic acid]",< 1000 nM
6,"CCOC(=O)C(CC)(CCC(=O)O)c1ccnc(Nc2ccc(C)cc2)n1 (stereo not drawn) [Cmp. 13, 4-ethoxycarbonyl-4-[2-(4-methylanilino)pyrimidin-4-yl]hexanoic acid]",< 10000 nM
7,"CCOC(=O)C(CC)(CCC(=O)O)c1cncc(Nc2cc(F)ccc2F)n1 (racemic) [Cmp. 20, 4-[6-(2,5-difluoroanilino)pyrazin-2-yl]-4-ethoxycarbonyl-hexanoic acid]",< 1000 nM
8,"CCOC(=O)C(CC)(CCC(=O)O)c1nc(Nc2ccccc2Cl)sc1Cl (single isomer, unassigned) [27 (enantiomer 1)]",< 1000 nM
9,"CCc1ncc(Nc2ccc(F)cc2F)nc1C(CC)(CC)CCC(=O)O [Cmp. 19, 4-[6-(2,4-difluoroanilino)-3-ethyl-pyrazin-2-yl]-4-ethyl-hexanoic acid]",< 1000 nM
10,"CCOC(=O)C(CC)(CCC(=O)O)c1csc(Nc2ccc(F)cc2F)n1 (racemic) [Cmp. 6, 4-[2-(2,4-difluoroanilino)thiazol-4-yl]-4-ethoxycarbonyl-hexanoic acid]",< 10000 nM
11,"CCOC(=O)C(CC)(CCC(=O)O)c1nc(Nc2ccccc2Cl)sc1Cl (racemic) [Cmp. 27 (RS), 4-[5-chloro-2-(2-chloroanilino)thiazol-4-yl]-4-ethoxycarbonyl-hexanoic acid]",< 1000 nM
12,"CCOC(=O)C(CC)(CCC(=O)O)c1cncc(Nc2ccc(C)cc2)n1 (racemic) [Cmp. 5, 4-ethoxycarbonyl-4-[6-(4-methylanilino)pyrazin-2-yl]hexanoic acid]",< 10000 nM
13,"CCC(CC)(CCC(=O)O)c1csc(Nc2ccc(C(F)(F)F)cc2)n1 [compound 31, 4-ethyl-4-(2-((4-(trifluoromethyl)phenyl)amino)thiazol-4-yl)hexanoic acid]",< 20000 nM
14,"CCOC(=O)C(CC)(CCC(=O)O)c1cncc(Nc2ccc(O)c(F)c2)n1 (racemic) [compound 37, 4-(ethoxycarbonyl)-4-(6-((3-fluoro-4-hydroxyphenyl)amino)pyrazin-2-yl)hexanoic acid]",< 1000 nM
15,"CCC(CCC(=O)O)(C(=O)OC1(C)CC1)c1cncc(Nc2ccc(F)cc2F)n1 (racemic) [compound 39, 4-(6-((2,4-difluorophenyl)amino)pyrazin-2-yl)-4-((1-methylcyclopropoxy)carbonyl)hexanoic acid]",< 1000 nM
16,"CCC(CC)(CCC(=O)O)c1cncc(Nc2ccc(F)cc2F)n1 [Cmp. 18, 4-[6-(2,4-difluoroanilino)pyrazin-2-yl]-4-ethyl-hexanoic acid]",< 1000 nM
17,"CCOC(=O)C(CC)(CCC(=O)O)c1nc(Nc2ccc(F)cc2F)sc1C (racemic) [compound 34, 4-(2-((2,4-difluorophenyl)amino)-5-methylthiazol-4-yl)-4-(ethoxycarbonyl)hexanoic acid]",< 10000 nM
18,"CCOC(=O)C(CC)(CCC(=O)O)c1nc(Nc2ccc(Cl)cc2Cl)sc1Br (racemic) [Cmp. 14b, 4-[5-bromo-2-(2,4-dichloroanilino)thiazol-4-yl]-4-ethoxycarbonyl-hexanoic acid]",< 1000 nM
19,"CCOC(=O)C(CC)(CCC(=O)O)c1cncc(Nc2ccc(F)cc2F)n1 (racemic) [Cmp. 11, 4-[6-(2,4-difluoroanilino)pyrazin-2-yl]-4-ethoxycarbonyl-hexanoic acid]",< 1000 nM
20,"CCC(CC)(CCC(=O)O)c1nc(Nc2ccc(F)cc2F)sc1Br [Cmp. 22b, 4-[5-bromo-2-(2,4-difluoroanilino)thiazol-4-yl]-4-ethyl-hexanoic acid]",< 1000 nM

# Further lines, results first:
row,IC50,SMILES
1,< 100000 nM,"CCC(CC)(CCC(=O)O)c1coc(Nc2ccc(C)cc2)n1 [compound 32, 4-ethyl-4-(2-(p-tolylamino)oxazol-4-yl)hexanoic acid]"
2,< 10000 nM,"CCC(CC)(CCC(=O)O)c1csc(Nc2ccccc2OC)n1 (racemic) [Cmp. 7, 4-ethyl-4-[2-(2-methoxyanilino)thiazol-4-yl]hexanoic acid]"
3,< 10000 nM,"CCC(CC)(CCC(=O)O)c1csc(Nc2cccc(OC)c2)n1 [Cmp. 9, 4-ethyl-4-[2-(3-methoxyanilino)thiazol-4-yl]hexanoic acid]"
4,< 1000 nM,"CCC(CC)(CCC(=O)O)c1nc(Nc2ccccc2O)sc1C [Cmp. 10, 4-ethyl-4-[2-(2-hydroxyanilino)-5-methyl-thiazol-4-yl]hexanoic acid]"
5,< 10000 nM,"CCC(CC)(CCC(=O)O)c1csc(Nc2ccccc2Cl)n1 [Cmp. 8, 4-[2-(2-chloroanilino)thiazol-4-yl]-4-ethyl-hexanoic acid]"
6,< 1000 nM,"CCC(CC)(CCC(=O)O)c1cncc(Nc2cc(F)c(F)cc2F)n1 [Cmp. 29, 4-ethyl-4-[6-(2,4,5-trifluoroanilino)pyrazin-2-yl]hexanoic acid]"
7,< 10000 nM,"CCOC(=O)C(CCC(=O)O)(CC1CC1)c1cncc(Nc2ccc(C)cc2)n1 (racemic) [compound 36, 4-(cyclopropylmethyl)-5-ethoxy-5-oxo-4-(6-(p-tolylamino)pyrazin-2-yl)pentanoic acid]"
8,< 1000 nM,"CCC(CC)(CCC(=O)O)c1cncc(Nc2ccccc2Cl)n1 [Cmp. 28, 4-[6-(2-chloroanilino)pyrazin-2-yl]-4-ethyl-hexanoic acid]"
9,< 1000 nM,"CCOC(=O)C(CC)(CCC(=O)O)c1csc(Nc2ccccc2O)n1 (racemic) [Cmp. 1, 4-ethoxycarbonyl-4-[2-(2-hydroxyanilino)thiazol-4-yl]hexanoic acid]"
10,< 10000 nM,"CCC(CC)(CCC(=O)O)c1nnc(Nc2ccc(C)cc2)o1 [compound 33, 4-ethyl-4-(5-(p-tolylamino)-1,3,4-oxadiazol-2-yl)hexanoic acid]"
11,< 10000 nM,"CCC(CC)(CCC(=O)O)c1csc(-c2ccccc2)n1 [compound 30, 4-ethyl-4-(2-phenylthiazol-4-yl)hexanoic acid]"
12,< 20000 nM,"CCOC(=O)C(CC)(CCC(=O)O)c1csc(Nc2ccc(C)cc2)n1 (racemic) [Cmp. 3, 4-ethoxycarbonyl-4-[2-(4-methylanilino)thiazol-4-yl]hexanoic acid]"
13,< 1000 nM,"CCC(CC)(CCC(=O)O)c1nc(Nc2ccc(Cl)cc2Cl)sc1C [Cmp. 24, 4-[2-(2,4-dichloroanilino)-5-methyl-thiazol-4-yl]-4-ethyl-hexanoic acid]"
14,< 1000 nM,"CCOC(=O)C(CC)(CCC(=O)O)c1cncc(Nc2ccccc2OC)n1 (racemic) [Cmp. 17, 4-ethoxycarbonyl-4-[6-(2-methoxyanilino)pyrazin-2-yl]hexanoic acid]"
15,< 1000 nM,"CCOC(=O)C(CC)(CCC(=O)O)c1nc(Nc2ccc(Cl)cc2Cl)sc1Cl (racemic) [compound 40, 4-(5-chloro-2-((2,4-dichlorophenyl)amino)thiazol-4-yl)-4-(ethoxycarbonyl)hexanoic acid]"
16,< 10000 nM,"CCC(CCC(=O)O)(COC)c1cncc(Nc2ccc(F)cc2F)n1 (racemic) [compound 38, 4-(6-((2,4-difluorophenyl)amino)pyrazin-2-yl)-4-(methoxymethyl)hexanoic acid]"
